What was measured:
[1] = rats, intravenous, cited from earlier work
[2] = T1 of glucose 13C nuclei by inversion recovery pulse sequence (Varian NMR spectrometers, 7 T and 11.8 T); assay type: physicochemical
Protocol: The effect of glucose concentration on the T1 of its carbon positions was investigated at 7 T (FIG. 1A) and at 11.8 T (FIG. 1B) using Varian NMR spectrometers (The Netherlands). [U-^13C6, ^2H7]glucose was obtained from Cambridge Isotopes Laboratories (Andover, Mass., USA). The T1 of [U-^13C6, ^2H7]glucose ^13C's was measured using the inversion recovery pulse sequence. […] The mean difference between the T1s of the two concentrations was 6.9 s (P=2*10^−6, paired t-test) at 7 T. The mean difference in T1 at 11.8 T was 4.5 s (P=4*10^−5, paired t-test). The labels C1α and C1β (FIG. 1-3) mark the two signals of the glucose carbon at position 1 in the α and β anomers. The labels Ciα and Ciβ (FIG. 1-3) mark the two signals of the glucose carbon at position i in the α and β anomers.
The effect of the magnetic field strength on the T1 of glucose carbons was investigated at 7 T (FIG. 2, solid gray columns) and at 11.8 T (FIG. 2, diagonal pattern columns). [U-^13C6, ^2H7]glucose T1 at 400 mM was measured using the inversion recovery pulse sequence in the two spectrometers. […] The mean difference in T1 between the two fields was 2 s (P=6*10^−4, paired t-test).
To increase the signal of hyperpolarized deoxy-glucose and hyperpolarized glucose, stable isotope labeling by carbon-13 in all of the carbon positions was used. The effect of direct carbon-13 to carbon-13 bonding on the individual carbon-13 T1s was investigated to study the effect of these added dipolar interactions on T1 relaxation times. To this end, two compounds were investigated (both from Cambridge Isotopes Laboratories): [U-^13C6, ^2H7]glucose (FIG. 3, solid gray columns) and [^2H7]glucose (FIG. 3, diagonal pattern columns), both at 400 mM concentration. The T1 at 11.8 T was measured using the inversion recovery pulse sequence. While both compounds are fully deuterated, in the [U-^13C6, ^2H7]glucose molecule the carbon positions are 99% occupied by ^13C nuclei. In the [^2H7]glucose molecule, only ca. 1.1% of each of the carbon positions are occupied by ^13C nuclei (due to the natural abundance distribution of ^13C). The chance for having two directly bonded ^13C nuclei in this molecule is therefore 0.01% (negligible). Therefore this measurement was indicative of the T1 of singly ^13C labeled glucose. […] Therefore, it was deducted that direct bonding of additional ^13C nuclei led to a decrease in glucose ^13C T1s, due to the additional dipolar interactions.

[3] = Hyperpolarized glucose carbon-13 images in vivo at 3 T after tail vein bolus; design: species or system rats
Protocol: Hyperpolarized glucose images were recorded at 3 T in vivo. As depicted in FIG. 5, hyperpolarized [U-^13C6, ^2H7]glucose provided a high signal on carbon-13 images recorded in vivo. Normal rats were anesthetized, and hyperpolarized [U-^13C6, ^2H7]glucose was injected through the tail vein in a bolus of 12 s total duration. Images were recorded at 8, 12, and 20 s from the onset of the bolus injection (i.e. during and after the bolus). […] Arterial hyperpolarized media flow at this time is not likely, as the signal in the kidneys is not yet visible. […] The signal from the injected hyperpolarized media is extremely high with no background signal. At 12 s (FIG. 5B), at the end of the bolus injection, signal intensity in the main vasculature and the heart is still high, with substantial intensity observed in the kidneys (see indicating arrows). At 20 s from bolus initiation (FIG. 5C), signal from the heart is the most intense signal in the image, about 40% higher than signal in the vasculature and 20% higher than signal in the kidneys. Still, signal in the kidneys is clearly observed, as well as signal in other tissues such as the liver (see indicating arrows and color change). The hyperpolarized glucose signal observed in the heart at 20 s from bolus start is more intense than signal in the vasculature and the kidneys. […] In the anaesthetized rat, the only tissue that is expected to actively take up glucose is the myocardium, because under anesthesia it is the only active muscle. […] It is noted that heart anatomy cannot be discerned from these hyperpolarized images since the imaging time (1 s) averaged several heart beats (approximately 6 beats). However, glucose uptake by the myocardium can be determined at short time frames of the order of 20 s using gradient de-phasing of intravoxel moving spins. Using this methodology, hyperpolarized glucose or deoxyglucose signal from capillaries are diminished, while the signal of intracellular hyperpolarized glucose or deoxyglucose are imaged and indicate the level of glucose uptake in the tissue.

[4] = value taken as a consideration in the simulation; cited from earlier work

O=CC[C@@H](O)[C@H](O)[C@H](O)CO [2-deoxy-D-glucose]
heart rate ([1]; 0.25, 0.5, and 1 g/Kg): no change
respiratory rate ([1]; 0.25, 0.5, and 1 g/Kg): no change
arterial blood pressure ([1]; 0.25, 0.5, and 1 g/Kg, not in a dose dependent manner): mean decrease
death ([1]; dose of 0.25, 0.5, and 1 g/Kg): No death

[2H][13C]1(O)O[13C@]([2H])([13C]([2H])([2H])O)[13C@@]([2H])(O)[13C@]([2H])(O)[13C@@]1([2H])O (stereo partly shown) [[U-^13C6, ^2H7]glucose]
mean difference in T1 between the two fields (longer at 7 T) ([2]; 400 mM, 7 T vs 11.8 T, P=6*10^-4, paired t-test): 2 s
T1 of glucose, individual values per carbon position and anomer ([2]; 7 T, 400 mM): 8 to 13 s
mean difference between the T1s of the two concentrations (longer at 400 mM) ([2]; 7 T, 400 mM vs 4.03 M, P=2*10^-6, paired t-test): 6.9 s
mean difference in T1 between the two concentrations (longer at 400 mM) ([2]; 11.8 T, 400 mM vs 4.03 M, P=4*10^-5, paired t-test): 4.5 s
T1 of glucose 13Cs shorter than in [2H7]glucose (natural abundance 13C) ([2]; 11.8 T, 400 mM, P=1.4x10^-3, paired t-test): 3.3 s
signal from the heart higher than signal in the kidneys ([3]; 20 s from bolus initiation): ~20%
signal from the heart higher than signal in the vasculature ([3]; 20 s from bolus initiation): about 40%
signal on carbon-13 images recorded in vivo ([3]; normal anesthetized rats, tail vein bolus of 12 s): high signal

CC(=O)C(=O)O [pyruvate, [1-^13C]pyruvate]
T1 of pyruvate [4]: 55 s

— patent publication US10814018B2, “Isotopically labeled deoxy-glucose and derivatives thereof, compositions comprising them and uses thereof” (HADASIT MEDICAL RESEARCH SERVICE & DEVELOPMENT LTD., priority 2010, dated 2020)
